In US20100168099A1, “1H-QUINOLIN-4-ONE COMPOUNDS, WITH AFFINITY FOR THE GABA RECEPTOR, PROCESSES, USES AND COMPOSITIONS” (FERRER INTERNACIONAL, S.A., priority 2006, published 2010):

How the values were obtained:
[1] = system: α1-GABAA receptor; test: Ligand-binding assay, radiolabeled flumazenil competition, cerebellum membranes; parameters: species or system rat; settings: for Affinity for the α1-subunit of the GABAA receptor, % inhibition: rat cerebellum membranes, radiolabeled flumazenil 1 nM; for affinity for α1-subunit of GABAA receptor (in words): compared with zolpidem where stated; for α1-/α2-selectivity (in words): compared with zolpidem
Description: (§1) a) Ligand-binding Assays. Determination of the Affinity of Test Compounds for α1- and α2-GABAA, Receptor
(§2) Male Sprague-Dawley rats weighing 200-250 g at the time of experiment were used. After decapitation of the animal, the cerebellum (tissue that mostly contains α1-GABAA receptor) and spinal cord (tissue that mostly contains α2-GABAA receptor) were removed. The membranes were prepared according to the method by J. Lameh et al. (Prog. Neuro-Psychopharmacol. Biol. Psychiatry, 24, 979-991, 2000) and H. Noguchi et al. (Eur J Pharm, 434, 21-28, 2002) with slight modifications. Once the tissues weighed, they were suspended in 50 mM Tris.HCl (pH 7.4), 1:40 (v/v), or sucrose 0.32 M in the case of spinal cord, homogenized and then centrifuged at 20,000 g for 10 min at 7° C. The resulting pellet was resuspended under the same conditions and centrifuged again. The pellet was finally resuspended on a minimum volume and kept at −80° C. overnight. On the next day, the process was repeated until the final pellet was resuspended at a ratio of 1:10 (v/v) in the case of cerebellum and at a ratio of 1:5 (v/v) in the case of spinal cord.
(§3) Affinity was determined by competitive tests using radiolabeled flumazenil as ligand. The tests were performed according to the methods described by S. Arbilla et al. (Eur. J. Pharmacol., 130, 257-263, 1986); and Y. Wu et al. (Eur. J. Pharmacol., 278, 125-132, 1995) using 96-well microtiter plates. The membranes containing the study receptors, flumazenil (radiolabeling at a final concentration of 1 nM) and ascending concentrations of test compounds (in a total volume of 230 μL in 50 mM [pH 7.4] Tris.HCl buffer) were incubated. Simultaneously, the membranes were only incubated with the radiolabeled flumazenil (total binding, 100%) and in the presence of an elevated concentration of unradiolabeled flumazenil (non-specific binding, % estimation of radiolabeled ligand). The reactions started on adding the radiolabeled ligand followed by incubation for 60 minutes at 4° C. At the end of the incubation period, 200 μL of reaction were transferred to a multiscreen plate (Millipore) and filtered using a vacuum manifold and then washed three times with cold test buffer. The multiscreen plates were equipped with a GF/B filter that retained the membranes containing the receptors and the radiolabeled ligand which had been bound to the receptors. After washing, the plates were left till dry. Once dried, scintillation liquid was added and left under stirring overnight. The next day the plates were counted using a Perkin-Elmer Microbeta scintillation counter.
(§4) For analysis of the results the percentage of specific binding for every concentration of test compound was calculated as follows:
(§5) % specific binding=(X−N/T−N)×100
(§6) where, X: amount of bound ligand for every concentration of compound. T: total binding, maximum amount bound to the radiolabeled ligand. N: non-specific binding, amount of radiolabeled ligand bound in a non-specific way irrespective of the receptor used.
(§7) Every concentrations of compound were tested in triplicate and their mean values were used to determine the experimental values of % specific binding versus the concentration of compound. Affinity data are expressed as % inhibition at 10^−5M and 10^−7M concentrations.

[2] = system: α2-GABAA receptor; test: Ligand-binding assay, radiolabeled flumazenil competition, spinal cord membranes; parameters: species or system rat; settings: for Affinity for the α2-subunit of the GABAA receptor, % inhibition: rat spinal cord membranes, radiolabeled flumazenil 1 nM
Description: as §1, §2, §3, §4, §5, §6, §7

[3] = system: spontaneous motor activity of male CD1 mice; test: In vivo predictive sedation-hypnosis test (traveled distance); settings: Mus musculus, ip, 0.5 h, 98 μmol/kg, single intraperitoneal dose, 30 minutes after dosing (first 5 min discarded), versus control
Description: b) In Vivo Determination of Predictive Sedative-Hypnotic Action
The in vivo effects of these compounds were assessed by a predictive sedation-hypnosis test in mice (D. J. Sanger et al., Eur. J. Pharmacol., 313, 35-42, 1996; and G. Griebel et al., Psychopharmacology, 146, 205-213, 1999).
Groups of 5-8 male CD1 mice, weighing 22-26 g at the time of test, were used. The test compounds were administered in single equimolecular intraperitoneal doses, suspended in 0.25% agar with one drop of Tween in a volume of 10 mL/kg. Control animals received the vehicle alone. Using a Smart System (Panlab, S. L., Spain) the traveled distance in cm was recorded for each mouse at 5 min intervals during a period of 30 minutes after dosing. The inhibition percentage traveled distance of treated animals versus control animals (the first 5 min were discarded) was calculated.

## Cc1cccc2c1c(=O)cc(-c1ccccc1)n2CC(=O)N1CCOCC1 [Example 1, 5-Methyl-1-(2-morpholin-4-yl-2-oxo-ethyl)-2-phenyl-1H-quinolin-4-one]
[1]; 10^−5M
  Affinity for the α1-subunit of the GABAA receptor, % inhibition: 99.5%
[1]; 10^−7M
  Affinity for the α1-subunit of the GABAA receptor, % inhibition: 57.9%
[1]
  affinity for α1-subunit of GABAA receptor (in words): higher affinity

## Cc1cccc2c1c(=O)cc(-c1ccccc1)n2CC(=O)N1CCCC1 [Example 11, 5-Methyl-1-(2-oxo-2-pyrrolidin-1-yl-ethyl)-2-phenyl-1H-quinolin-4-one]
[1]; 10^−5M
  Affinity for the α1-subunit of the GABAA receptor, % inhibition: 99.9%
[1]; 10^−7M
  Affinity for the α1-subunit of the GABAA receptor, % inhibition: 52.6%
[1]
  affinity for α1-subunit of GABAA receptor (in words): higher affinity

## CCCN(CCC)C(=O)Cn1cc(-c2ccccc2)c(=O)c2ccc(C)cc21 [Example 14, 2-(7-Methyl-4-oxo-3-phenyl-4H-quinolin-1-yl)-N,N-dipropyl-acetamide]
[1]; 10^−5M
  Affinity for the α1-subunit of the GABAA receptor, % inhibition: 98.4%
[1]; 10^−7M
  Affinity for the α1-subunit of the GABAA receptor, % inhibition: 36.7%
[1]
  affinity for α1-subunit of GABAA receptor (in words): higher affinity
[2]; 10^−5M
  Affinity for the α2-subunit of the GABAA receptor, % inhibition: 77.3%
[2]; 10^−7M
  Affinity for the α2-subunit of the GABAA receptor, % inhibition: 40.6%
[3]
  inhibition in vivo at 98 µmol/kg: 96.2%

## Cc1ccc2c(=O)c(-c3ccccc3)cn(CC(=O)N3CCCCC3)c2c1 [Example 15, 7-Methyl-1-(2-oxo-2-piperidin-1-yl-ethyl)-3-phenyl-1H-quinolin-4-one]
[1]; 10^−5M
  Affinity for the α1-subunit of the GABAA receptor, % inhibition: 87.3%
[1]; 10^−7M
  Affinity for the α1-subunit of the GABAA receptor, % inhibition: 0.0%
[1]
  α1-/α2-selectivity (in words): higher α1-/α2-selectivity than the most selective therapeutically used compound zolpidem
[2]; 10^−5M
  Affinity for the α2-subunit of the GABAA receptor, % inhibition: 13.3%
[2]; 10^−7M
  Affinity for the α2-subunit of the GABAA receptor, % inhibition: 0.0%
[3]
  inhibition in vivo at 98 µmol/kg: 84.7%

## CCN(CC)C(=O)Cn1cc(-c2ccccc2)c(=O)c2ccc(C)cc21 [Example 17, N,N-Diethyl-2-(7-methyl-4-oxo-3-phenyl-4H-quinolin-1-yl)-acetamide]
[1]; 10^−5M
  Affinity for the α1-subunit of the GABAA receptor, % inhibition: 91.4%
[1]; 10^−7M
  Affinity for the α1-subunit of the GABAA receptor, % inhibition: 0.7%
[2]; 10^−5M
  Affinity for the α2-subunit of the GABAA receptor, % inhibition: 70.1%
[2]; 10^−7M
  Affinity for the α2-subunit of the GABAA receptor, % inhibition: 0.0%
[3]
  inhibition in vivo at 98 µmol/kg: 81.5%

## Cc1ccc2c(=O)c(-c3ccccc3)cn(CC(=O)N3CCCC3)c2c1 [Example 18, 7-Methyl-1-(2-oxo-2-pyrrolidin-1-yl-ethyl)-3-phenyl-1H-quinolin-4-one]
[1]; 10^−5M
  Affinity for the α1-subunit of the GABAA receptor, % inhibition: 86.2%
[1]; 10^−7M
  Affinity for the α1-subunit of the GABAA receptor, % inhibition: 7.5%
[1]
  α1-/α2-selectivity (in words): higher α1-/α2-selectivity than the most selective therapeutically used compound zolpidem
[2]; 10^−5M
  Affinity for the α2-subunit of the GABAA receptor, % inhibition: 66.3%
[2]; 10^−7M
  Affinity for the α2-subunit of the GABAA receptor, % inhibition: 0.0%
[3]
  inhibition in vivo at 98 µmol/kg: 84.5%

## Cc1ccc2c(=O)c(-c3ccccc3)cn(CC(=O)c3cccs3)c2c1 [Example 27, 7-Methyl-1-(2-oxo-2-thiophen-2-yl-ethyl)-3-phenyl-1H-quinolin-4-one]
[1]; 10^−5M
  Affinity for the α1-subunit of the GABAA receptor, % inhibition: 97.7%
[1]; 10^−7M
  Affinity for the α1-subunit of the GABAA receptor, % inhibition: 14.0%
[2]; 10^−5M
  Affinity for the α2-subunit of the GABAA receptor, % inhibition: 89.9%
[2]; 10^−7M
  Affinity for the α2-subunit of the GABAA receptor, % inhibition: 8.4%
[2]; compared with zolpidem where stated
  affinity for the α2-subunit of GABAA receptor (in words): higher affinity than prior art compound zolpidem
[3]
  inhibition in vivo at 98 µmol/kg: 70%

## Cc1ccc2c(=O)c(-c3ccccc3)cn(CC(=O)c3ccccn3)c2c1 [Example 28, 7-Methyl-1-(2-oxo-2-pyridin-2-yl-ethyl)-3-phenyl-1H-quinolin-4-one]
[1]; 10^−5M
  Affinity for the α1-subunit of the GABAA receptor, % inhibition: 97.9%
[1]; 10^−7M
  Affinity for the α1-subunit of the GABAA receptor, % inhibition: 22.5%
[2]; 10^−5M
  Affinity for the α2-subunit of the GABAA receptor, % inhibition: 88.0%
[2]; 10^−7M
  Affinity for the α2-subunit of the GABAA receptor, % inhibition: 0.0%
[3]
  inhibition in vivo at 98 µmol/kg: 84.4%

## Cc1ccc2c(=O)c(-c3ccccc3)cn(CC(=O)N3CC(C)OC(C)C3)c2c1 (stereo not drawn) [Example 32, 1-[2-(2,6-Dimethyl-morpholin-4-yl)-2-oxo-ethyl]-7-methyl-3-phenyl-1H-quinolin-4-one]
[1]; 10^−5M
  Affinity for the α1-subunit of the GABAA receptor, % inhibition: 86.2%
[1]; 10^−7M
  Affinity for the α1-subunit of the GABAA receptor, % inhibition: 18.4%
[1]
  α1-/α2-selectivity (in words): higher α1-/α2-selectivity than the most selective therapeutically used compound zolpidem
[2]; 10^−5M
  Affinity for the α2-subunit of the GABAA receptor, % inhibition: 55.4%
[2]; 10^−7M
  Affinity for the α2-subunit of the GABAA receptor, % inhibition: 0.0%
[3]
  inhibition in vivo at 98 µmol/kg: 90%

## Cc1ccc2c(=O)c(-c3ccccc3)cn(CC(=O)c3oc(C)nc3C)c2c1 [Example 33, 1-[2-(2,4-Dimethyl-oxazol-5-yl)-2-oxo-ethyl]-7-methyl-3-phenyl-1H-quinolin-4-one]
[1]; 10^−5M
  Affinity for the α1-subunit of the GABAA receptor, % inhibition: 97.0%
[1]; 10^−7M
  Affinity for the α1-subunit of the GABAA receptor, % inhibition: 33.9%
[3]
  inhibition in vivo at 98 µmol/kg: 91.7%

## CCCN(CCC)C(=O)Cn1cc(-c2ccc(OC)cc2)c(=O)c2ccc(C)cc21 [Example 36, 2-[3-(4-Methoxy-phenyl)-7-methyl-4-oxo-4H-quinolin-1-yl]-N,N-dipropyl-acetamide]
[1]; 10^−5M
  Affinity for the α1-subunit of the GABAA receptor, % inhibition: 95.9%
[1]; 10^−7M
  Affinity for the α1-subunit of the GABAA receptor, % inhibition: 20.3%
[3]
  inhibition in vivo at 98 µmol/kg: 92.1%

## CCCN(CC1CC1)C(=O)Cn1cc(-c2ccccc2)c(=O)c2ccc(C)cc21 [Example 39, N-Cyclopropylmethyl-2-(7-methyl-4-oxo-3-phenyl-4H-quinolin-1-yl)-N-propyl-acetamide]
[1]; 10^−5M
  Affinity for the α1-subunit of the GABAA receptor, % inhibition: 98.8%
[1]; 10^−7M
  Affinity for the α1-subunit of the GABAA receptor, % inhibition: 56.3%
[1]
  affinity for α1-subunit of GABAA receptor (in words): higher affinity
[2]; 10^−5M
  Affinity for the α2-subunit of the GABAA receptor, % inhibition: 93.4%
[2]; 10^−7M
  Affinity for the α2-subunit of the GABAA receptor, % inhibition: 28.5%
[3]
  inhibition in vivo at 98 µmol/kg: 92.5%

## CCCN(CCC)C(=O)Cn1cc(-c2ccccc2)c(=O)c2ccc(Br)cc21 [Example 44, 2-(7-Bromo-4-oxo-3-phenyl-4H-quinolin-1-yl)-N,N-dipropyl-acetamide]
[1]; 10^−5M
  Affinity for the α1-subunit of the GABAA receptor, % inhibition: 99.8%
[1]; 10^−7M
  Affinity for the α1-subunit of the GABAA receptor, % inhibition: 61.9%
[1]
  affinity for α1-subunit of GABAA receptor (in words): higher affinity
[3]
  inhibition in vivo at 98 µmol/kg: 95.2%

## C=CCN(CC=C)C(=O)Cn1cc(-c2ccccc2)c(=O)c2ccc(Br)cc21 [Example 129, N,N-Diallyl-2-(7-bromo-4-oxo-3-phenyl-4H-quinolin-1-yl)-acetamide]
[1]; 10^−5M
  Affinity for the α1-subunit of the GABAA receptor, % inhibition: 99.7%
[1]; 10^−7M
  Affinity for the α1-subunit of the GABAA receptor, % inhibition: 85.2%
[1]
  affinity for α1-subunit of GABAA receptor (in words): higher affinity
[3]
  inhibition in vivo at 98 µmol/kg: 93.5%
